According to patent publication US12552797B2, “Process for making (3-[cyclopropylethoxy(difluoro)methyl]-6-6[5-fluoro-6-(2,2,2-trifluoroethoxy-3-pyridyl]- [1,2,4]triazolo[4,3-a]pyrazine” (Praxis Precision Medicines, Inc., priority 2019, dated 2026):

Test: Stability of suspension formulations in 0.5% MC 400 cP/0.2% Tween 80 (HPLC, PSD)
Format: physicochemical
Experimental: For stability and purity testing of Compound 1 a high-performance liquid chromatography (HPLC) method was developed. The HPLC method used for chemical stability and purity testing was as follows:
To prepare suspension formulations of Compound 1, about 0.5 mg, 5 mg and 10 mg of Compound 1 were weighted into separate vials and 1 mL 0.5% MC 400 cP/0.2% Tween 80 was added to each vial. The materials were mixed together by Vortex and stirred at room temperature overnight (24 hrs). The stability of the suspension formulations was measured by quantifying the purity of Compound 1 using high pressure liquid chromatography (HPLC). […]
To prepare a suspension formulation comprising jet-milled Compound 1, 15 mg of jet-milled Compound 1 was weighed into a glass vial and then 10 mL of vehicle (0.5% MC 400 cP/0.2% Tween 80) was added to disperse it to reach Compound 1 concentration of 1.5 mg/mL. The suspension was thoroughly dispersed by homogenization for ˜30 seconds. The stability of the suspension was evaluated by HPLC and particle size distribution (PSD), and the results are summarized in Table 7. Based on HPLC and PSD, the suspension formulation comprising jet-milled Compound 1 was stable at ambient condition for 28 days.

[1] = jet milled, 0.5% MC 400 cP/0.2% Tween 80, target 1.5 mg/mL, 1 day
[2] = jet milled, 0.5% MC 400 cP/0.2% Tween 80, target 1.5 mg/mL, 6 days
[3] = jet-milled, 0.5% MC 400 cP/0.2% Tween 80, target 1.5 mg/mL, RT, Initial
[4] = jet-milled, 0.5% MC 400 cP/0.2% Tween 80, target 1.5 mg/mL, RT, day 1
[5] = jet-milled, 0.5% MC 400 cP/0.2% Tween 80, target 1.5 mg/mL, RT, day 2
[6] = jet-milled, 0.5% MC 400 cP/0.2% Tween 80, target 1.5 mg/mL, RT, day 3
[7] = jet-milled, 0.5% MC 400 cP/0.2% Tween 80, target 1.5 mg/mL, RT, day 6
[8] = jet-milled, 0.5% MC 400 cP/0.2% Tween 80, target 1.5 mg/mL, RT, day 7
[9] = jet-milled, 0.5% MC 400 cP/0.2% Tween 80, target 1.5 mg/mL, RT, day 14
[10] = jet-milled, 0.5% MC 400 cP/0.2% Tween 80, target 1.5 mg/mL, RT, day 21
[11] = jet-milled, 0.5% MC 400 cP/0.2% Tween 80, target 1.5 mg/mL, RT, day 28
[12] = un-milled, 0.5% MC 400 cP/0.2% Tween 80, target 0.5 mg/mL, 1 hr
[13] = un-milled, 0.5% MC 400 cP/0.2% Tween 80, target 0.5 mg/mL, 4 hrs
[14] = un-milled, 0.5% MC 400 cP/0.2% Tween 80, target 0.5 mg/mL, 7 days
[15] = un-milled, 0.5% MC 400 cP/0.2% Tween 80, target 5 mg/mL, 4 hrs
[16] = un-milled, 0.5% MC 400 cP/0.2% Tween 80, target 5 mg/mL, 7 days
[17] = un-milled, 0.5% MC 400 cP/0.2% Tween 80, target 10 mg/mL, 1 hr
[18] = un-milled, 0.5% MC 400 cP/0.2% Tween 80, target 10 mg/mL, 4 hrs
[19] = un-milled, 0.5% MC 400 cP/0.2% Tween 80, target 10 mg/mL, 7 days

In the case of `CCOC(F)(F)c1nnc2cnc(-c3cnc(OCC(F)(F)F)c(F)c3)cn12` [Compound 1, 3-(ethoxydifluoromethyl)-6-(5-fluoro-6-(2,2,2-trifluoroethoxy)pyridin-3-yl)-[1,2,4]triazolo[4,3-a]pyrazine], the appearance of suspensions (0.5, 5 and 10 mg/mL in 0.5% MC 400 cP/0.2% Tween 80, room temperature) is reported as “homogenous suspensions”, the Concentration [1] is reported as 1440 µg/mL and the Purity [1] is reported as 99.4%. The Concentration [2] was 1430 µg/mL, the Purity [2] was 99.5% and the Appearance [3] was “Homogeneous”. The Conc. [3] was 1610 µg/mL, the Purity [3] was 99.43% and the Appearance [4] was “Homogeneous”. For the same compound, the Conc. [4] was 1440 µg/mL, the Purity [4] was 99.44% and the Appearance [5] was “Homogeneous”. For the same compound, the Conc. [5] was 1380 µg/mL, the Purity [5] was 99.52% and the Appearance [6] was “Homogeneous”. The Conc. [6] was 1580 µg/mL, the Purity [6] was 99.49% and the Appearance [7] was “Homogeneous”. The Conc. [7] was 1430 µg/mL, the Purity [7] was 99.51% and the Appearance [8] was “Homogeneous”. The Conc. [8] was 1610 µg/mL, the Purity [8] was 99.55% and the Appearance [9] was “Homogeneous”. For the same compound, the Conc. [9] was 1610 µg/mL, the Purity [9] was 99.36% and the Appearance [10] was “Homogeneous”. For the same compound, the Conc. [10] was 1560 µg/mL, the “PSD (D90)” value [10] was 6.97 um and the Purity [10] was 99.58%. The Appearance [11] was “Homogeneous”, the Conc. [11] was 1640 µg/mL and the “PSD (D90)” value [11] was 6.80 um. For the same compound, the Purity [11] was 98.96%, the “stable at ambient condition (HPLC and PSD)” value (suspension of jet-milled Compound 1, 1.5 mg/mL, 0.5% MC 400 cP/0.2% Tween 80) was 28 days and the Concentration [12] was 580 µg/mL. It also gave a Purity [12] of 97.46%, a Concentration [13] of 450 µg/mL and a Purity [13] of 96.65%. It also gave a Concentration [14] of 490 µg/mL, a Purity [14] of 97.85% and a Purity (un-milled, 0.5% MC 400 cP/0.2% Tween 80, target 5 mg/mL, 1 hr) of 97.60%. It also gave a Concentration [15] of 4720 µg/mL, a Purity [15] of 97.84% and a Concentration [16] of 5060 µg/mL. The Purity [16] was 96.95%, the Concentration [17] was 9690 µg/mL and the Purity [17] was 96.86%. It also gave a Concentration [18] of 9790 µg/mL, a Purity [18] of 97.12% and a Concentration [19] of 9720 µg/mL. For the same compound, the Purity [19] was 96.71%.
